We go through 5 compounds from patent publication US6420381B1, “Naphthyridine derivatives” (Sumitomo Pharmaceuticals Company, Limited, priority 1998, dated 2002).

Where a name gives a salt, the structure may show the parent alone.

Data set [1] concerns the target T1, ACAT (Rattus norvegicus, UniProt O70536).
T1 construct: The rat peritoneal-derived macrophage was prepared; endogenous in cells; host or cells: rat peritoneal macrophages (primary)
T1 sequence (O70536 1-545): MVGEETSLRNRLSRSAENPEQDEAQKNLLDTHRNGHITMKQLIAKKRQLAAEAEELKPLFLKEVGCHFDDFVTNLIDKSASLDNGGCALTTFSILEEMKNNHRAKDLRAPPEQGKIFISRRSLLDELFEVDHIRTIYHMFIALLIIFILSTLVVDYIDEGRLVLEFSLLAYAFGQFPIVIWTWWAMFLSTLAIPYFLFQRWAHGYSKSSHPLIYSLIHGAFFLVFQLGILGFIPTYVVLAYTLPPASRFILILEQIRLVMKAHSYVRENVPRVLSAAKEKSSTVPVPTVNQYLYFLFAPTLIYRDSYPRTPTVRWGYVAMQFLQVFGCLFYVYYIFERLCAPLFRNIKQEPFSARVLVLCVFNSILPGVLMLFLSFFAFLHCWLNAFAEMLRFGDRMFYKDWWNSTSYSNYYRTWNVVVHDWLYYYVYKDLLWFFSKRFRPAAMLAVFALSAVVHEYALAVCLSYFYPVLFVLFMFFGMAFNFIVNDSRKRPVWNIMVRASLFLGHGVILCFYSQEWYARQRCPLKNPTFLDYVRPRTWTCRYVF
The data set can be described thus: Assay of ACAT inhibitory activity in a macrophage derived from rat peritoneal. The class given is cell-based. Conditions: [9,10-3H]oleic acid. As to the method: 2. Assay of ACAT inhibitory activity in a macrophage derived from rat peritoneal:
The rat peritoneal-derived macrophage was prepared according to the method disclosed in the literature: Biochimica et Biophysica Acta, 1126, 73-80, 1992. The ACAT activity was determined by a modified method of the method disclosed in the above literature: Biochimica et Biophysica Acta, 1126, 73-80, 1992, i.e., using radioactive [9,10-^3H]oleic acid and exogenous cholesterol contained in the liposome which was re-constituted according to the method disclosed in the literature: Biochimica et Biophysica Acta, 1213, 127-134, 1994, and calculated from the radioactivity of the labeled cholesterolyl oleate.

For data set [2], the system named is ACAT. The data set can be described thus: Assay of ACAT inhibitory activity in a specimen prepared from rabbit liver. It is filed as biochemical, New Zealand white rabbit. Conditions: enzyme specimen from liver of cholesterol-fed rabbit, [1-14C]oleoyl-CoA. As to the method: 1. Assay of ACAT inhibitory activity in a specimen prepared from rabbit liver:
An enzyme specimen ACAT was prepared according to the method disclosed in the literature: J. Lipid. Research, 30, 681-690, 1989, from the liver of a New Zealand white rabbit, which had been fed with 1% cholesterol feed for one month. The ACAT activity was determined according to the method disclosed in the literature: J. Lipid Research, 24, 1127-1134, 1983, i.e., using radioactive [1-^14C]oleoyl-CoA and endogenous cholesterol contained in the liver microsome, and calculated from the radioactivity of the labeled cholesterol oleate.

Usually melting point stands for the temperature of the solid-liquid transition. In turn, `CCCCn1c(=O)c(NC(=O)Nc2cc(CN(C)C)ccc2C(C)(C)C)c(-c2cccc(OC)c2)c2cccnc21` (as salt: hydrochloride) [Example 30] gave a melting point of 174 to 175 °C. As to `CCCCn1c(=O)c(NC(=O)Nc2cc(CNC)ccc2C(C)(C)C)c(-c2cccc(OC)c2)c2cccnc21` (as salt: hydrochloride) [Example 31], the melting point fell in the range of 163 to 165 °C.

Take `CCCCn1c(=O)c(NC(=O)Nc2cc(CNCC)ccc2C(C)(C)C)c(-c2cccc(OC)c2)c2cccnc21` (as salt: hydrochloride) [Example 32]: the melting point was 158 to 161 °C. With `CCCCn1c(=O)c(NC(=O)Nc2cc(CN3CCOCC3)ccc2C(C)(C)C)c(-c2cccc(OC)c2)c2cccnc21` [Example 1, N-[1-butyl-4-(3-methoxyphenyl)-1,2-dihydro-2-oxo-1,8-naphthyridin-3yl]-N′-[2-tert-butyl-5-(morpholinomethyl)phenyl]urea], the inhibition at 1 µM at ACAT [1] (10^−6 M, read-out: ACAT inhibitory rate (%) 10^−6 M) stood at 97%. Moreover, the “ACAT inhibitory rate (%) 10^−6 M” value with ACAT [2] was found to be 98%.

As for “N-[1-butyl-4-(3-methoxyphenyl)-1,2-dihydro-2-oxo-1,8-naphthyridin-3-yl]-N′-[2-tert-butyl-5-(1-pyrazolylmethyl)phenyl]urea [Example 19]”, the entries for the “ACAT inhibitory rate (%) 10^−6 M” value at ACAT [1] and in the data set with ACAT [2] were 73% and 99%, respectively.
